Molecular target: T1, MBL (Homo sapiens, UniProt P11226)
Test: not given
Details: cited from earlier work

T1 sequence (P11226 21-248, species assumed): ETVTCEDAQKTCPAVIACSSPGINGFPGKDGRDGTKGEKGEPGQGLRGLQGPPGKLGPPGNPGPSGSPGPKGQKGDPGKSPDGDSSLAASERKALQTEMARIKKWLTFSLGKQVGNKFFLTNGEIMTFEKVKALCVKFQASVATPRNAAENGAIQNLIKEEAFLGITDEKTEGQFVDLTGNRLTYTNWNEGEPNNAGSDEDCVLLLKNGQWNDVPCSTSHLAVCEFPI

| Compound | inhibition of MBL |
| --- | --- |
| SFGSGFGGGY [keratin peptide, peptide which mimics N-acetyl glucosamine] | can inhibit MBL |

Test system: not listed separately
Test: Comparison of stability of MBL and Con A in glucose assay
Details: 110 kDa HMCV1-dextran, physiological TRIS buffer pH 7.4, glucose cycles 2.5-50 mM
Description: Example 5 was repeated using MBL-AF594 and ConA-AF594 as lectin with 110 kDa HMCV1-dextran as analyte analogue in physiological TRIS buffer (pH 7.4, sodium, potassium and calcium present in physiological concentrations). […] Measurements were taken at 5 minute intervals using a miniaturized time resolved fluorimeter.

| Compound | phase measurements at each glucose level over time |
| --- | --- |
| MBL-AF594: human MBL stained with Alexa Fluor 594 succinimidyl ester, 2.3 dyes per subunit | constant over time |

Same assay, conditions: after 20 days; 110 kDa HMCV1-dextran, physiological TRIS buffer pH 7.4

| Compound | reduction in the measured phase |
| --- | --- |
| Concanavalin A | more than 10% |

Same assay, conditions: assay conditions, body temperature

| Compound | time stable at body temperature |
| --- | --- |
| Concanavalin A | less than 20 days |

Same assay, conditions: glucose assay

| Compound | time stable in a glucose assay |
| --- | --- |
| MBL: collagen-like C-type collectin, human MBL | at least 17 days |

Molecular target: T1, MBL
Test: Affinity of common carbohydrate moieties for MBL
Type: binding
Details: not given

| Compound | affinity / binding to MBL in words |
| --- | --- |
| O=C[C@H](O)[C@@H](O)[C@H](O)[C@H](O)CO [D-glucose] | high affinity |
| CC(=O)N[C@H]1C(O)O[C@H](CO)[C@@H](O)[C@@H]1O (stereo partly drawn) [N-acetyl-D-glucosamine] | high affinity |
| O=C[C@@H](O)[C@@H](O)[C@H](O)[C@H](O)CO [D-Mannose] | high affinity |
| O=C[C@H](O)[C@@H](O)[C@@H](O)[C@H](O)CO [D-galactose] | very low affinity |

Same assay, conditions: value = moieties ranked next below (>) or above (<)

| Compound | affinity for MBL, rank order of common carbohydrate moieties |
| --- | --- |
| C[C@H](O)[C@@H](O)[C@@H](O)[C@H](O)C=O [L-Fucose] | > myo-inositol, D-glucose, D-arabinose, D-palatinose, D-turanose, D-sorbitol, D-ribose, D-tagatose |
| O=C[C@@H](O)[C@H](O)[C@H](O)CO [D-arabinose] | > D-lyxose |
| OC[C@@H](O)[C@@H](O)[C@H](O)[C@@H](O)CO [D-sorbitol] | > D-lyxose |
| O=C[C@H](O)[C@@H](O)[C@H](O)[C@H](O)CO [D-glucose] | > D-lyxose |
| O=C(CO)[C@@H](O)[C@@H](O)[C@H](O)CO [D-tagatose] | > D-lyxose |
| D-turanose | > D-lyxose |
| O=C[C@@H](O)[C@@H](O)[C@H](O)CO [D-lyxose] | > lactose, L-arabinose, D-galactose |
| O[C@H]1[C@H](O)[C@@H](O)[C@H](O)[C@@H](O)[C@H]1O [myo-inositol] | > D-lyxose |
| OC[C@H]1O[C@@](CO)(O[C@H]2O[C@H](CO)[C@@H](O[C@H]3O[C@H](CO)[C@@H](O)[C@H](O)[C@H]3O)[C@H](O)[C@H]2O)[C@@H](O)[C@@H]1O [erlose] | > myo-inositol, D-glucose, D-arabinose, D-palatinose, D-turanose, D-sorbitol, D-ribose, D-tagatose |
| CC(=O)N[C@H]1C(O)O[C@H](CO)[C@@H](O)[C@@H]1O (stereo partly drawn) [N-acetyl-D-glucosamine] | > myo-inositol, D-glucose, D-arabinose, D-palatinose, D-turanose, D-sorbitol, D-ribose, D-tagatose |
| O=C[C@@H](O)[C@@H](O)[C@H](O)[C@H](O)CO [D-Mannose] | > myo-inositol, D-glucose, D-arabinose, D-palatinose, D-turanose, D-sorbitol, D-ribose, D-tagatose |
| O=C[C@H](O)[C@@H](O)[C@@H](O)[C@H](O)CO [D-galactose] | D-lyxose |
| O=C[C@H](O)[C@H](O)[C@H](O)CO [D-ribose] | > D-lyxose |
| O=C(CO)[C@@H](O)[C@H](O)[C@H](O)CO [D-fructose] | > myo-inositol, D-glucose, D-arabinose, D-palatinose, D-turanose, D-sorbitol, D-ribose, D-tagatose |
| OC[C@H]1O[C@H](OC[C@H]2OC(O)(CO)[C@@H](O)[C@@H]2O)[C@H](O)[C@@H](O)[C@@H]1O (stereo partly drawn) [D-palatinose] | > D-lyxose |
| O=C[C@H](O)[C@@H](O)[C@@H](O)CO [L-arabinose] | D-lyxose |
| CC(=O)N[C@@H]1C(O)O[C@H](CO)[C@@H](O)[C@@H]1O (stereo partly drawn) [N-acetyl-D-mannosamine] | > myo-inositol, D-glucose, D-arabinose, D-palatinose, D-turanose, D-sorbitol, D-ribose, D-tagatose |
| OC[C@H]1O[C@H](O[C@@H]2CO[C@](O)(CO)[C@@H](O)[C@@H]2O)[C@H](O)[C@@H](O)[C@@H]1O [D-leucrose] | > myo-inositol, D-glucose, D-arabinose, D-palatinose, D-turanose, D-sorbitol, D-ribose, D-tagatose |
| OC[C@H]1O[C@@H](O[C@H]2[C@H](O)[C@@H](O)C(O)O[C@@H]2CO)[C@H](O)[C@@H](O)[C@H]1O (stereo partly shown) [lactose] | D-lyxose |
